Test systems include RXF 393 renal; SN12C renal; NCI-H226 lung; MALME-3M melanoma; MDA-N; BT-549 breast; RPMI-8226 leukemia; UACC-257 melanoma; TK-10 renal.
Common to all, as to experiment: NCI tumour cell line growth inhibition, 48 h

The text below walks through data of PubChem BioAssay (NCI).

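Grown in 96-well plates, cells were treated for 48 hours with each compound at five concentrations. Insufficient inhibition: endpoint recorded as highest concentration tested. Definition used: TGI = concentration required for complete inhibition of growth.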

As to `Cc1cccc(N=N/C(=N\NC(=O)c2cc(Cl)ccc2O)c2ccc(N(CCC#N)CCC#N)cc2C)c1`, the TGI was 97.3 µM with RXF 393 renal; 69 µM in the assay with SN12C renal; above 100 µM in the assay with NCI-H226 lung; 94.1 µM in the assay with MALME-3M melanoma; above 100 µM in the assay with MDA-N; above 100 µM with BT-549 breast. Also, the TGI in the assay with RPMI-8226 leukemia came to 44.9 µM; with UACC-257 melanoma, 97.6 µM; in the assay with TK-10 renal it was 76.9 µM.

With `Cn1c(=O)c2c(=O)cc(N)[nH]c2n(C)c1=O`, the TGI in the assay on RXF 393 renal, in the assay with SN12C renal, in the assay with NCI-H226 lung, in the assay on MALME-3M melanoma, in the assay with MDA-N and in the assay with BT-549 breast was above 100 µM throughout. Further, the TGI in the assay with RPMI-8226 leukemia, in the assay on UACC-257 melanoma and with TK-10 renal was above 100 µM in each case.

For the compound `O=C1CN(c2ccccc2)C(=O)CN1NCNN1CC(=O)N(c2ccccc2)CC1=O`, the TGI in the assay with RXF 393 renal, in the assay on SN12C renal, in the assay with MALME-3M melanoma, in the assay on MDA-N, in the assay with BT-549 breast and in the assay on RPMI-8226 leukemia was above 100 µM each time. The TGI in the assay on UACC-257 melanoma and in the assay on TK-10 renal was above 100 µM each time.

On to `CC(C)C(/C=C/c1ccc(Cl)cc1)=N\NC(=O)N/N=C(/C=C/c1ccc(Cl)cc1)C(C)C`, for which the TGI is 76.9 µM in the assay on RXF 393 renal; 33.7 µM with SN12C renal; 54.9 µM in the assay on NCI-H226 lung; above 100 µM in the assay with MALME-3M melanoma; above 100 µM in the assay on MDA-N; 97.9 µM with BT-549 breast. In addition, the TGI is above 100 µM in the assay on RPMI-8226 leukemia, above 100 µM in the assay on UACC-257 melanoma and 51.3 µM in the assay with TK-10 renal.

`COc1ccc(Nc2cc(=O)[nH]c(=O)[nH]2)cc1`: the TGI with RXF 393 renal, in the assay on SN12C renal, in the assay with NCI-H226 lung, with MALME-3M melanoma, in the assay with MDA-N and with BT-549 breast was above 100 µM throughout. The TGI in the assay with RPMI-8226 leukemia, in the assay with UACC-257 melanoma and in the assay with TK-10 renal was above 100 µM throughout.

`CC1(C)N([O-])[N+](=O)C1(C)O` (stereo not drawn): the TGI with RXF 393 renal, with SN12C renal, in the assay with NCI-H226 lung, in the assay with MALME-3M melanoma, in the assay on MDA-N and in the assay on BT-549 breast was above 100 µM in each case. Moreover, the TGI with RPMI-8226 leukemia, in the assay with UACC-257 melanoma and in the assay with TK-10 renal was above 100 µM in each case.

On to `COC(=O)C1Cc2cc3c(cc2C1)CCC3`, for which the TGI with RXF 393 renal, in the assay on SN12C renal, in the assay with NCI-H226 lung, in the assay on MALME-3M melanoma, in the assay with MDA-N and in the assay on BT-549 breast was above 100 µM each time. Also, the TGI with RPMI-8226 leukemia, in the assay with UACC-257 melanoma and in the assay with TK-10 renal was above 100 µM in each case.

On to `CCOC(=O)CC1Nc2ccccc2C12CCc1c([nH]c3ccccc13)C2C(=O)OCC` (stereo not drawn), for which the TGI in the assay on RXF 393 renal is above 100 µM; with SN12C renal, above 100 µM; in the assay with MALME-3M melanoma, 51.6 µM; in the assay with MDA-N it was above 100 µM; in the assay with BT-549 breast, above 100 µM; in the assay with RPMI-8226 leukemia, 11.1 µM. The TGI in the assay with UACC-257 melanoma and with TK-10 renal was above 100 µM in each case.

Turning to `OC(Cc1cc(CC(O)(C(F)(F)F)C(F)(F)F)nc(CC(O)(C(F)(F)F)C(F)(F)F)c1)(C(F)(F)F)C(F)(F)F`, the TGI in the assay on RXF 393 renal came to 4.57 µM; with SN12C renal it was 7.33 µM; in the assay on NCI-H226 lung it was 7.58 µM; in the assay with MALME-3M melanoma, 7.96 µM; in the assay with MDA-N it was 4.09 µM; with BT-549 breast, 6.1 µM. For the same compound, the TGI in the assay on RPMI-8226 leukemia is above 10 µM; in the assay with UACC-257 melanoma it was 5.26 µM; in the assay with TK-10 renal it was above 10 µM.

In the case of `CC(C)CC1N=C(OCc2ccccc2)OC1=O` (stereo not drawn), the TGI in the assay on RXF 393 renal, in the assay with SN12C renal, in the assay with NCI-H226 lung, in the assay with MALME-3M melanoma, with MDA-N and in the assay with BT-549 breast was above 100 µM in each case. For the same compound, the TGI in the assay with RPMI-8226 leukemia, with UACC-257 melanoma and in the assay on TK-10 renal was above 100 µM throughout.

Consider `CC1CC(=O)Nc2ccccc2N1C(=O)C1CC1` (stereo not drawn), for which the TGI in the assay on RXF 393 renal, in the assay on SN12C renal, in the assay with NCI-H226 lung, in the assay on MALME-3M melanoma, in the assay with MDA-N and in the assay with BT-549 breast was above 100 µM in each case. The TGI with RPMI-8226 leukemia, in the assay with UACC-257 melanoma and with TK-10 renal was above 100 µM throughout.

Turning to `O=C(/C=C/c1cccc(Br)c1)N1CCN(CCOC(c2ccccc2)c2ccccc2)CC1`, the TGI with RXF 393 renal is above 100 µM; with SN12C renal, above 100 µM; in the assay on NCI-H226 lung it was above 100 µM; in the assay with MALME-3M melanoma, above 100 µM; in the assay with MDA-N it was above 100 µM; in the assay on BT-549 breast, 84.2 µM. In addition, the values for the TGI in the assay with RPMI-8226 leukemia, in the assay with UACC-257 melanoma and in the assay on TK-10 renal were 36.2 µM, above 100 µM and above 100 µM, respectively.

`C[C@@H]1CC[C@@]2(C)[C@H](C)/C(=C\COC(=O)/C=C/c3ccc(O)c(O)c3)CC[C@@]12C`: the TGI is 39.1 µM in the assay on RXF 393 renal; 17.1 µM in the assay with SN12C renal; 20.8 µM in the assay with NCI-H226 lung; 27.8 µM in the assay with MALME-3M melanoma; 14.3 µM in the assay on MDA-N; 29 µM with BT-549 breast. The results for the TGI in the assay on RPMI-8226 leukemia, with UACC-257 melanoma and with TK-10 renal were 10.2 µM, 24.1 µM and 11.5 µM, respectively.

In the case of `c1ccc(/C(=N/Nc2ccccn2)c2cccnn2)cc1`, the TGI is above 100 µM in the assay with RXF 393 renal; 40.7 µM with SN12C renal; 11.2 µM with NCI-H226 lung; above 67.9 µM in the assay on MALME-3M melanoma; above 100 µM in the assay with MDA-N; above 100 µM with BT-549 breast. Besides, the figures for the TGI in the assay on RPMI-8226 leukemia, with UACC-257 melanoma and in the assay with TK-10 renal were 17 µM, above 100 µM and above 100 µM, respectively.

As for `O=C1c2ccccc2C(=O)N1NC1=NCCN1`, the TGI in the assay on RXF 393 renal, with SN12C renal, with NCI-H226 lung, with MALME-3M melanoma, in the assay with MDA-N and in the assay on BT-549 breast was above 100 µM throughout. For the same compound, the TGI in the assay on RPMI-8226 leukemia, with UACC-257 melanoma and in the assay on TK-10 renal was above 100 µM throughout.
